For series [1], the system named is HeLa (human cervical carcinoma) cells. The series can be described thus: Cell growth assay (XTT), HeLa. The class given is cell-based. The settings on record: 72 h drug exposure, read-out: Antiproliferative activity IC50 HeLa. The method, then:
(§1) The presence of mycoplasma was routinely checked with MycoAlert kit (Lonza-Cambrex) and only mycoplasma-free cells were used in the experiments. Tumour cell lines were kindly provided by Dr Faustino Mollinedo from Centro de Investigaciones Biológicas Margarita Salas, Madrid, Spain. To determine cell growth, cells in exponential growth phase were seeded (100 µL/well in 96-well plates) with appropriate cell concentration (1.5 × 10^4 cells/mL for MCF7, HeLa and HEK-293 and 3 × 10^4 cells/mL for HT-29) in complete DMEM or RPMI 1640 medium (see above) at 37 °C and 5% CO2 atmosphere. After 24 h incubation, to allow cells to attach to the plates, all compounds were added at 1 µM concentration (10 µL/well in 96-well plates) and the effect on the proliferation was evaluated 72 h post-treatment. Compounds showing antiproliferative effects at tested concentration were selected for IC50 calculation (50% inhibitory concentration compared to the untreated controls) from 10^−5 to 10^−10 M concentration. Nonlinear curves fitting the experimental data were carried out for each compound. […] A freshly prepared mixture solution of XTT labelling reagent with 0.02% (v/v) PMS (N-methyl-dibenzopyrazine methyl sulfate) electron coupling reagent was added to cells (50 µL/well in 96-well plates, the total volume of 160 µL/well) and were incubated during the corresponding time according to each cell line (4 h for MCF7 and HeLa and 6 h for HT-29 and HEK-293) in a humidified atmosphere (37 °C, 5% CO2). The absorbance of the formazan product generated was measured at a test wavelength of 450 nm using a multi-well plate reader (Ultra Evolution, Tecan, Männedorf, Suiza). Compounds were dissolved in DMSO and the final solvent concentrations never exceeded 0.5% (v/v). The control wells included treated cells with 0.5% (v/v) DMSO and the positive control. 10 µM verapamil was included as a control for the HT-29 cell line. Measurements were performed in triplicate, and each experiment was repeated three times.
Background: Tetrazolium assays rely on reduction of a dye to a coloured formazan, in cell work by metabolically active cells.

Series [2] has as its system MCF7 (human breast carcinoma) cells. Description: Cell growth assay (XTT), MCF7. The series is classed as cell-based. The settings on record: Homo sapiens, MCF7; 72 h drug exposure, XTT; read-out: Antiproliferative activity IC50 MCF7. The procedure:
as §1

For series [3], the system named is HT-29 (human colon carcinoma) cells. Description: Cell growth assay (XTT), HT-29, alone or with verapamil. The series is classed as cell-based. The method, then:
as §1, with “Compounds showing antiproliferative effects at tested concentration were selected for IC50 calculation (50% inhibitory concentration compared to the untreated controls) from 10^−5 to 10^−10 M concentration.” left out

Series [4] has as its target T1, microtubular protein isolated from calf brain (Bos taurus, UniProt P81947+Q6B856).
T1 construct: isolated from calf brain according to the modified Shelanski method; from tissue; host or cells: calf brain
The series can be described thus: Inhibition of tubulin polymerisation (turbidity). The class given is biochemical. The settings on record: for TPI % 10 µM: 10 µM compound, 1.5 mg/mL microtubular protein; for IC50: in vitro tubulin polymerisation inhibition, read-out: TPI IC50. The procedure:
Microtubular protein was isolated from calf brain according to the modified Shelanski method[23]^,[24] by two cycles of temperature-dependent assembly/disassembly and stored at −80 °C. Before each use, protein concentration is determined by Bradford method[25] taking BSA as standard. Tubulin polymerisation was monitored using a Helios α spectrophotometer by measuring the increase in turbidity at 450 nm, caused by a shift from 4 °C to 37 °C, which allows the in vitro microtubular protein to depolymerise and to polymerise, respectively. The assay was carried out in quartz cuvettes containing 1.5 mg/mL microtubular protein and the ligand (except for control cuvette with only DMSO at the same concentration) in a mixture of 0.1 M MES buffer, 1 mM EGTA, 1 mM MgCl2, 1 mM β-ME, and 1.5 mM GTP at pH 6.7 (final volume 500 µL). Cuvettes were preincubated at 20 °C for 30 min, to allow ligand binding to tubulin, and subsequently cooled on ice for 10 min. Then, the experiment starts at 4 °C to establish the initial baseline. The assembly process was initiated by a temperature shift to 37 °C and the turbidity produced by tubulin polymerisation can be measured by an absorbance increase. After reaching a stable plateau, the temperature was switched back to 4 °C to return to the initial absorption values (to confirm the reversible nature of the monitored process and to determine whether or not the microtubular protein has stabilized). The difference in amplitude between the stable plateau and the initial baseline of the curves was taken as the degree of tubulin polymerisation for each experiment. […] All compounds were tested at 10 µM concentration. IC50 values were calculated for compounds that inhibit tubulin polymerisation more than 50% at 10 µM. […] All the measurements were carried out in at least two independent experiments using microtubular protein from different preparations.

Series [5] in a line: Aqueous solubility (saturation shake-flask, UV). The series is classed as physicochemical. Conditions: pH 7.0 phosphate buffer, room temperature; for solubility at 48 h: aqueous buffer, thermodynamic from solid. The method, then:
The aqueous solubility was determined in a Helios-α UV-320 Spectrophotometer Thermo-Spectronic, Thermo Fischer Scientific, Waltham, MA, USA) using an approach based on the saturation shake-flask method. 1–2 mg of each selected compound was suspended in 300 µL pH 7.0 buffer and stirred for 48 h at room temperature. The resulting mixture was filtered through a […] filter to discard the insoluble residues. A scan between 270 and 400 nm for the tested compound was performed and three wavelengths of maximum absorbance were selected. Calibration curves were performed at these wavelengths and the concentration in the supernatant was measured by UV absorbance. The final value was given as the average of the three measurements.

[6] abbreviates: Homo sapiens, HT-29, 72 h drug exposure, XTT, read-out: Antiproliferative activity IC50 HT-29.
[7] abbreviates: 72 h, in the presence of Pgp/MDR1 inhibitor verapamil (10 µM), read-out: Antiproliferative activity IC50 HT-29 Verap.

Structures are written as SMILES. In brackets after ≈: the same amount, converted by molar mass. Read-outs that look alike come from different tables or passages of the source.

T1 sequence (Q6B856 whole entry): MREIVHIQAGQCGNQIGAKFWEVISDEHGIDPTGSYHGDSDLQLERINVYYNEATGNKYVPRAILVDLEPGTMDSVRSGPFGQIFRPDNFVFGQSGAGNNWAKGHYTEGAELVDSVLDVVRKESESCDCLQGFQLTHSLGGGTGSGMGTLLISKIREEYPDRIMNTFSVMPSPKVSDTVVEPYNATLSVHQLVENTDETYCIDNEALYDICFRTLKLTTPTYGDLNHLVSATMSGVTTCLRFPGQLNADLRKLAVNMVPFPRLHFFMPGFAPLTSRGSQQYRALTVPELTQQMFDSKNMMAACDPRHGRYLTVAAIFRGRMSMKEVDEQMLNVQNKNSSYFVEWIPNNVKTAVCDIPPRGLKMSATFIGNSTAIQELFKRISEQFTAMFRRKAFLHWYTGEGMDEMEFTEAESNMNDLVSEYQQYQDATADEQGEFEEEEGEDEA
T1 sequence (P81947 whole entry): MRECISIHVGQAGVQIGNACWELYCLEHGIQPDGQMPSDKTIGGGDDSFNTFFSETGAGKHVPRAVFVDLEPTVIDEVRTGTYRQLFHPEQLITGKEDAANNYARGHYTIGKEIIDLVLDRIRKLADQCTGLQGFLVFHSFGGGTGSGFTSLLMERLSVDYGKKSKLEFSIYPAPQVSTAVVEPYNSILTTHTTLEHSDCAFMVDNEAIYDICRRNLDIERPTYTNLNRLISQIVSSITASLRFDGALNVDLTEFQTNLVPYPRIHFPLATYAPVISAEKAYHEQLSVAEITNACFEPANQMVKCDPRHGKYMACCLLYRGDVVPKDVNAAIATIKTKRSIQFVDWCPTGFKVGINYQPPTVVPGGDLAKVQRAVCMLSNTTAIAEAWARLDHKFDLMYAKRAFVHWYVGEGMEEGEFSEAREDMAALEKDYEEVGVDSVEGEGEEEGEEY

One may read the melting point as the temperature, or range, at which the solid turns liquid. A word on the IC50: it is the midpoint of a concentration-inhibition curve. In the case of `COc1ccc(S(=O)(=O)N(CC#N)c2cc(OC)cc(OC)c2)cc1` [Compound 4, N-(cyanomethyl)-N-(3,5-dimethoxyphenyl)-4-methoxybenzenesulphonamide], the melting point fell in the range of 92 to 96 °C. Moreover, in series [1], the IC50 is greater than 1000 nM. Also, the IC50 in series [2] was greater than 1000 nM. Further, the IC50 in series [3] (setting [6]) was greater than 1000 nM. For the same compound, in series [4], the “TPI % 10 µM” value amounted to 0% and the half-inhibitory concentration (IC50) is greater than 10000 nM.

Consider `CCN(c1cc(OC)cc(OC)c1Br)S(=O)(=O)c1ccc(OC)cc1` [Compound 9b, N-(2-bromo-3,5-dimethoxyphenyl)-N-ethyl-4-methoxybenzenesulphonamide], for which the melting point lay within 141 to 144 °C. Also, the 50% inhibitory concentration (IC50) in series [1] is greater than 1000 nM. Besides, the IC50 in series [2] was greater than 1000 nM. For the same compound, in series [3] (setting [6]), the IC50 is greater than 1000 nM. In addition, in series [4], the “TPI % 10 µM” value was 0% and the concentration for half-maximal inhibition (IC50) is greater than 10000 nM.

With `CCN(c1cc(OC)cc(OC)c1)S(=O)(=O)c1ccc(OC)cc1` [Compound 3, N-(3,5-dimethoxyphenyl)-N-ethyl-4-methoxybenzenesulphonamide], the melting point is 109 to 118 °C. The half-inhibitory concentration (IC50) in series [1] is greater than 1000 nM. In series [2], the half-maximal inhibitory concentration (IC50) was greater than 1000 nM. In addition, the IC50 in series [3] (setting [6]) is greater than 1000 nM. For the same compound, in series [4], the “TPI % 10 µM” value is recorded as 0% and the half-maximal inhibitory concentration (IC50) is greater than 10000 nM.

`COc1ccc(S(=O)(=O)Nc2cc(OC)cc(OC)c2)cc1` [Compound 1, N-(3,5-dimethoxyphenyl)-4-methoxybenzenesulphonamide] came in with a melting point of 115 to 122 °C. Besides, the IC50 in series [1] is greater than 1000 nM. Further, the 50% inhibitory concentration (IC50) in series [2] was greater than 1000 nM. Besides, the 50% inhibitory concentration (IC50) in series [3] (setting [6]) is greater than 1000 nM. In series [4], the “TPI % 10 µM” value is recorded as 0% and the 50% inhibitory concentration (IC50) is greater than 10000 nM.

Turning to `COc1ccc(S(=O)(=O)N(Cc2ccccc2)c2cc(OC)c(OC)cc2Br)cc1` [Compound 18, N-benzyl-N-(2-bromo-4,5-dimethoxyphenyl)-4-methoxybenzenesulphonamide], the melting point was 114 to 120 °C. Further, the IC50 in series [1] is greater than 1000 nM. Further, the half-maximal inhibitory concentration (IC50) in series [2] was greater than 1000 nM. In addition, in series [3] (setting [6]), the IC50 is greater than 1000 nM. Moreover, in series [4], the “TPI % 10 µM” value is recorded as 38% and the IC50 is greater than 10000 nM.

In the case of `COc1ccc(S(=O)(=O)N(Cc2ccccc2)c2cc(OC)cc(OC)c2)cc1` [Compound 6, N-benzyl-N-(3,5-dimethoxyphenyl)-4-methoxybenzenesulphonamide], the melting point is 146 to 150 °C. Further, the half-maximal inhibitory concentration (IC50) in series [1] is greater than 1000 nM. Besides, the IC50 in series [2] was greater than 1000 nM. Also, in series [3] (setting [6]), the half-maximal inhibitory concentration (IC50) was greater than 1000 nM. For the same compound, in series [4], the “TPI % 10 µM” value came out at 0% and the IC50 was greater than 10000 nM.

`COc1ccc(S(=O)(=O)N(C)c2cc(OC)cc(OC)c2Br)cc1` [Compound 8b, N-(2-bromo-3,5-dimethoxyphenyl)-4-methoxy-N-methylbenzenesulphonamide] displayed a melting point of 156 to 160 °C. Also, in series [1], the IC50 was greater than 1000 nM. Further, the IC50 in series [2] was greater than 1000 nM. Besides, the IC50 in series [3] (setting [6]) is greater than 1000 nM. In addition, in series [4], the “TPI % 10 µM” value amounted to 0% and the IC50 was greater than 10000 nM.

As a reminder, the Aqueous solubility is how much of the substance goes into solution per volume. With `COc1ccc(/C=C\c2cc(OC)c(OC)c(OC)c2)cc1O` [Combretastatin A-4, combretastatin A-4, reference compound], the concentration for half-maximal inhibition (IC50) in series [1] turned out to be 2 nM; in series [2], 1 nM; in series [3] (setting [7]), 327 nM; in series [3] (setting [6]) it was 305 nM. The “Difference of IC50 values HeLa vs HT-29” value in series [3] is greater than 100 fold. Further, in series [4], the “TPI % 10 µM” value came out at 100%. The compound further displayed an Aqueous solubility in series [5] (48 h) of 1 µg/mL.

As to `COc1ccc(S(=O)(=O)N(CC(=O)O)c2cc(OC)c(Br)cc2OC)cc1` [Compound 29, N-(4-bromo-2,5-dimethoxyphenyl)-N-((4-methoxyphenyl)sulphonyl)glycine], the melting point fell in the range of 180 to 184 °C. For the same compound, in series [1], the IC50 was greater than 1000 nM. Also, in series [2], the 50% inhibitory concentration (IC50) is greater than 1000 nM. For the same compound, in series [3] (setting [6]), the half-inhibitory concentration (IC50) is greater than 1000 nM. Besides, in series [4], the “TPI % 10 µM” value is 8% and the half-maximal inhibitory concentration (IC50) is greater than 10000 nM.

As to `CCOC(=O)CN(c1cc(OC)c(OC)cc1OC)S(=O)(=O)c1ccc(OC)cc1` [Compound 36, Ethyl N-((4-methoxyphenyl)sulphonyl)-N-(2,4,5-trimethoxyphenyl)glycinate], the melting point was in the range of 127 to 132 °C. In addition, the IC50 in series [1] was greater than 1000 nM. The 50% inhibitory concentration (IC50) in series [2] is greater than 1000 nM. The half-maximal inhibitory concentration (IC50) in series [3] (setting [6]) was greater than 1000 nM. Also, in series [4], the “TPI % 10 µM” value worked out at 0% and the IC50 is greater than 10000 nM.

For orientation: solubility means how much of the substance goes into solution per volume. A higher solubility goes with a readily soluble substance. For the compound `COc1ccc(S(=O)(=O)N(C)c2ccc(OC)c(OC)c2)cc1` [Compound 12, N-(3,4-dimethoxyphenyl)-4-methoxy-N-methylbenzenesulphonamide], the 50% inhibitory concentration (IC50) in series [1] is greater than 1000 nM; in series [2], greater than 1000 nM; in series [3] (setting [6]), greater than 1000 nM; in series [4], greater than 10000 nM. In series [4], the “TPI % 10 µM” value is 0%. The compound also came in with a solubility at 48 h in series [5] of 70 µg/mL (≈ 207 µM).

With `CCN(c1cc(OC)c(OC)cc1OC)S(=O)(=O)c1ccc(OC)cc1` [Compound 34, N-ethyl-4-methoxy-N-(2,4,5-trimethoxyphenyl)benzenesulphonamide], the IC50 in series [1] is 313 nM; in series [2] it was 715 nM; in series [3] (setting [7]), 1070 nM; in series [3] (setting [6]), 500 nM; in series [4] it was greater than 10000 nM. Further, the “TPI % 10 µM” value in series [4] came to 19%. The same compound registered a solubility at 48 h in series [5] of 122 µg/mL (≈ 320 µM).

For the origin of these results see publication PMC8205030, “Methoxy and bromo scans on N-(5-methoxyphenyl) methoxybenzenesulphonamides reveal potent cytotoxic compounds, especially against the human breast adenocarcinoma MCF7 cell line” (Journal of Enzyme Inhibition and Medicinal Chemistry, 2021).
